# Laboratory results: US9266908B2, “Inhibitors of arginase and their therapeutic applications” (MARS, INCORPORATED, priority 2011, dated 2016)
# Experiments:
# human arginase I (ARG I) = target: T1, human arginase I (ARG I) (Homo sapiens, UniProt P05089); test: Inhibition of arginase I, spectrophotometric urea assay at 530 nm
# T1 sequence (P05089 1-322): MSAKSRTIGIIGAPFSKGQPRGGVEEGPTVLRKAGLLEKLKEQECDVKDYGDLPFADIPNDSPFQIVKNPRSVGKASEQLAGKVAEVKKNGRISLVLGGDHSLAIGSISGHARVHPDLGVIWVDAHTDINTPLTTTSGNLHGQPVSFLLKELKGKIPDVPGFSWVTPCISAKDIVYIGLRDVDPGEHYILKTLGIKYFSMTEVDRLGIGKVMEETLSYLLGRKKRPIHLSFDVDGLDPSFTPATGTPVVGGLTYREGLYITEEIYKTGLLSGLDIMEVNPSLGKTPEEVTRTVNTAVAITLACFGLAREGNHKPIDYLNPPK
# Protocol: (§1) Inhibition of arginase I (ARG I) and arginase II (ARG II) by the inventive compounds is followed spectrophotometrically at 530 nm. […] Solutions of arginase I and II are prepared in 100 mM sodium phosphate buffer, pH 7.4 containing 1 mg/ml of OVA to give an arginase stock solution at a final concentration of 100 ng/ml.
# (§2) To each well of a 96-well microtiter plate is add 40 μl of enzyme, 10 μl of an inventive compound and 10 μl of enzyme substrate (L-arginine+ manganese sulfate). For wells that are used as positive controls, only the enzyme and its substrate are added, while wells used as negative controls contain only manganese sulfate.
# (§3) After incubating the microtiter plate at 37° C. for 60 minutes, 150 μl of a urea reagent obtained by combining equal proportions (1:1) of reagents A and B is added to each well of the microtiter plate to stop the reaction. The urea reagent is made just before use by combining Reagent A (10 mM o-phthaldialdehyde, and 0.4% polyoxyethylene (23) lauryl ether (w/v) in 1.8 M sulfuric acid) with Reagent B (1.3 mM primaquine diphosphate, 0.4% polyoxyethylene (23) lauryl ether (w/v), 130 mM boric acid in 3.6 M sulfuric acid). After quenching the reaction mixture, the microtiter plate is allowed to stand for an additional 10 minutes at room temperature to allow color development. […] The normalized OD is then used to generate a dose-response curve by plotting the normalized OD values against log [concentration] and using regression analysis to compute the IC50 values.
# arginase II (ARG II) = target: T2, arginase II (ARG II) (Homo sapiens, UniProt P78540); test: Inhibition of arginase II, spectrophotometric urea assay at 530 nm
# T2 sequence (P78540 23-354): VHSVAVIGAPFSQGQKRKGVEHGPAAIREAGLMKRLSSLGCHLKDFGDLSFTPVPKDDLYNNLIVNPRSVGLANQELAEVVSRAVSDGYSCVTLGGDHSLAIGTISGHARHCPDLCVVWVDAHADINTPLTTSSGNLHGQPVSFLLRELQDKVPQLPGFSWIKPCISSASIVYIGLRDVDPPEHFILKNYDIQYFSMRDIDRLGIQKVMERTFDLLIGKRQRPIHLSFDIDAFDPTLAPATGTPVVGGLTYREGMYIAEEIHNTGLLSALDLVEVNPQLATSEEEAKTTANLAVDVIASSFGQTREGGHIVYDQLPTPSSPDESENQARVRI
# Protocol: as §1, §2, §3
# human-Arginase-1 = target: T3, human-Arginase-1 (Homo sapiens, UniProt P05089); test: Urea production in CHOK cells stably transfected with human-Arginase-1; format: cell-based; conditions: IC50 class, 5 mM arginine, 24 hours, read-out: CHOK Cell
# T3 construct: expressed in transfected cells; host or cells: CHOK cells
# T3 sequence (P05089 1-322): T1 sequence (P05089 1-322)
# Protocol: Table 3 also provides CHOK cell based IC50 values for illustrative arginase inhibitors. IC50 values were determined by measuring the production of urea in CHOK cells stably transfected with human-Arginase-1.
# Briefly, CHOK cells were stably transfected with human-arginase-1. To determiner the IC50 values for compounds in accordance with the present invention, parental CHOK cells and arginase-1 stably transfected cells were plated in a 96 well plate. Cells were plated using 200 μl of complete growth medium and incubated overnight at 37° C.
# Media from each of the wells containing cells was first removed and growth media supplemented with arginine at a concentration of 5 mM was added to each well. The test compounds were dissolved in PBS buffer to the desired concentration and added to appropriate wells. The plate was then incubated at 37° C. for 24 hours. After 24 hours the plates were spun down at 3000 RPM for 5 min and 50 μl of the media were transferred to a new plate.
# An aqueous solution of o-phthaldehyde, Brij, sulfuric acid, primaquine diphosphate and boric acid was added to each well and the plate was incubated for 10-15 minutes. The urea concentration in each well was determined by measuring the optical density at 520-530 nanometers using a standard curve. The IC50 values were calculated by measuring urea production at various concentrations of the inventive arginase inhibitors after subtracting the value related to the concentration of urea in control wells.
compound,measurement,setting,value
"NC(CCCCB(O)O)(C(=O)O)[C@H]1C[C@@H](NC2CCC(c3ccccc3)CC2)C1 (mixture of isomers) [Example 47, (S)-2-amino-6-borono-2-((1s,3R)-3-(4-phenylcyclohexylamino)cyclobutyl)hexanoic acid]",IC50,human arginase I (ARG I),26 to 100 nM
same,IC50,arginase II (ARG II),0.1 to 25 nM
same,IC50,human-Arginase-1,26000 to 100000 nM
"NC(CCCCB(O)O)(C(=O)O)[C@H]1C[C@@H](NCc2cccc(-c3ccccc3)c2F)C1 (mixture of isomers) [Example 48, (S)-2-amino-6-borono-2-((1s,3R)-3-((2-fluorobiphenyl-3-yl)methylamino)cyclobutyl)hexanoic acid]",IC50,human arginase I (ARG I),26 to 100 nM
same,IC50,arginase II (ARG II),0.1 to 25 nM
same,IC50,human-Arginase-1,26000 to 100000 nM
"NC(CCCCB(O)O)(C(=O)O)[C@H]1C[C@@H](NCc2ccc(-c3ccc(Cl)cc3)c(F)c2F)C1 (mixture of isomers) [Example 50, (S)-2-amino-6-borono-2-((1s,3R)-3-((4′-chloro-2,3-difluorobiphenyl-4-yl)methylamino)cyclobutyl)hexanoic acid]",IC50,human arginase I (ARG I),0.1 to 25 nM
same,IC50,arginase II (ARG II),26 to 100 nM
same,IC50,human-Arginase-1,1000 to 25000 nM
"NC(CCCCB(O)O)(C(=O)O)[C@H]1C[C@@H](NCc2ccc(-c3ccc(Cl)cc3)c(F)c2)C1 (mixture of isomers) [Example 51, (S)-2-amino-6-borono-2-((1s,3R)-3-((4′-chloro-2-fluorobiphenyl-4-yl)methylamino)cyclobutyl)hexanoic acid]",IC50,human arginase I (ARG I),26 to 100 nM
same,IC50,arginase II (ARG II),0.1 to 25 nM
same,IC50,human-Arginase-1,26000 to 100000 nM
"NC(CCCCB(O)O)(C(=O)O)[C@H]1C[C@@H](NCC2CCN(c3ccc(C(=O)O)cc3)CC2)C1 (mixture of isomers) [Example 59, 4-(4-(((1R,3s)-3-((S)-1-amino-5-borono-1-carboxypentyl)cyclobutylamino)methyl)piperidin-1-yl)benzoic acid]",IC50,human arginase I (ARG I),26 to 100 nM
same,IC50,arginase II (ARG II),26 to 100 nM
"NC(CCCCB(O)O)(C(=O)O)[C@H]1C[C@H](N(Cc2ccccc2)Cc2ccccc2)C1 (relative stereo) [Example 28, (S)-2-amino-6-borono-2-((1r,3S)-3-(dibenzylamino)cyclobutyl)hexanoic acid]",IC50,human arginase I (ARG I),> 1500 nM
same,IC50,arginase II (ARG II),> 1500 nM
"NC(CCCCB(O)O)(C(=O)O)[C@H]1C[C@@H](NCCCc2ccccc2)C1 (stereo partly drawn) [Example 1, (S)-2-amino-6-borono-2-((1s,3R)-3-(3-phenylpropylamino)cyclobutyl) hexanoic acid]",IC50,arginase II (ARG II),26 to 100 nM
"NC(CCCCB(O)O)(C(=O)O)[C@H]1C[C@@H](NCCCc2cc(F)cc(Cl)c2)C1 (stereo partly drawn) [Example 2, (S)-2-amino-6-borono-2-((1s,3R)-3-(3-(3-chloro-5-fluorophenyl)propylamino)cyclobutyl)hexanoic acid]",IC50,human arginase I (ARG I),26 to 100 nM
same,IC50,arginase II (ARG II),0.1 to 25 nM
"NC(CCCCB(O)O)(C(=O)O)[C@H]1C[C@@H](NCCc2ccc(F)c(F)c2)C1 (stereo partly drawn) [Example 3, (S)-2-amino-6-borono-2-((1s,3R)-3-(3,4-difluorophenethylamino)cyclobutyl)hexanoic acid]",IC50,human arginase I (ARG I),26 to 100 nM
same,IC50,arginase II (ARG II),26 to 100 nM
"NC(CCCCB(O)O)(C(=O)O)[C@H]1C[C@@H](NCCc2ccc(Cl)cc2Cl)C1 (stereo partly drawn) [Example 4, (S)-2-amino-6-borono-2-((1s,3R)-3-(2,4-dichlorophenethylamino)cyclobutyl)hexanoic acid]",IC50,human arginase I (ARG I),26 to 100 nM
same,IC50,arginase II (ARG II),26 to 100 nM
"NC(CCCCB(O)O)(C(=O)O)[C@H]1C[C@@H](NCc2cccc(-c3ccccc3)c2)C1 (stereo partly drawn) [Example 7, (S)-2-amino-2-((1s,3R)-3-(biphenyl-3-ylmethylamino)cyclobutyl)-6-boronohexanoic acid]",IC50,human arginase I (ARG I),26 to 100 nM
same,IC50,arginase II (ARG II),26 to 100 nM
"NC(CCCCB(O)O)(C(=O)O)[C@H]1C[C@@H](NC[C@@H]2Cc3ccccc3CN2)C1 (stereo partly drawn) [Example 14, (S)-2-amino-6-borono-2-((1R,3R)-3-(((S)-1,2,3,4-tetrahydroisoquinolin-3-yl)methylamino)cyclobutyl)hexanoic acid]",IC50,human arginase I (ARG I),26 to 100 nM
same,IC50,arginase II (ARG II),26 to 100 nM
"NC(CCCCB(O)O)(C(=O)O)[C@H]1C[C@@H](NCc2ccc(O)cc2)C1 (stereo partly drawn) [Example 20, (S)-2-amino-6-borono-2-((1s,3R)-3-(4-hydroxybenzylamino)cyclobutyl)hexanoic acid]",IC50,human arginase I (ARG I),26 to 100 nM
same,IC50,arginase II (ARG II),26 to 100 nM
"NC(CCCCB(O)O)(C(=O)O)[C@H]1C[C@@H](N2Cc3ccccc3C2)C1 (stereo partly drawn) [Example 29, 2-amino-6-borono-2-((1s,3R)-3-(isoindolin-2-yl)cyclobutyl)hexanoic acid]",IC50,human arginase I (ARG I),101 to 500 nM
same,IC50,arginase II (ARG II),101 to 500 nM
"CNC(CCCCB(O)O)(CCN1CCc2c(Cl)cccc2C1)C(=O)O (stereo not shown) [Example 31, 6-borono-2-(2-(5-chloro-3,4-dihydroisoquinolin-2(1H)-yl)ethyl)-2-(methylamino)hexanoic acid]",IC50,human arginase I (ARG I),101 to 500 nM
same,IC50,arginase II (ARG II),101 to 500 nM
"CNC(CCCCB(O)O)(CCN1CCc2ccccc2C1)C(=O)O (stereo not shown) [Example 32, 6-borono-2-(2-(3,4-dihydroisoquinolin-2(1H)-yl)ethyl)-2-(methylamino)hexanoic acid]",IC50,human arginase I (ARG I),101 to 500 nM
same,IC50,arginase II (ARG II),101 to 500 nM
"CNC(CCCCB(O)O)(CCN1CCC(C)(C)CC1)C(=O)O (stereo not shown) [Example 34, 6-borono-2-(2-(4,4-dimethylpiperidin-1-yl)ethyl)-2-(methylamino)hexanoic acid]",IC50,human arginase I (ARG I),101 to 500 nM
same,IC50,arginase II (ARG II),101 to 500 nM
"CNC(CCCCB(O)O)(CCN1CCC(c2ccc(Cl)cc2)CC1)C(=O)O (stereo not shown) [Example 37, 6-borono-2-(2-(4-(4-chlorophenyl)piperidin-1-yl)ethyl)-2-(methylamino)hexanoic acid]",IC50,human arginase I (ARG I),101 to 500 nM
same,IC50,arginase II (ARG II),101 to 500 nM
"NC(CCCCB(O)O)(CCCN1CCCC1)C(=O)O (stereo not shown) [Example 38, 2-amino-6-borono-2-(3-(pyrrolidin-1-yl)propyl)hexanoic acid]",IC50,human arginase I (ARG I),101 to 500 nM
same,IC50,arginase II (ARG II),101 to 500 nM
NC(CCCCB(O)O)(C(=O)O)[C@@H]1CC[C@H](NCc2ccc(-c3ccccc3)cc2)C1 (stereo partly shown) [Example 42],IC50,human arginase I (ARG I),26 to 100 nM
same,IC50,arginase II (ARG II),26 to 100 nM
"NC(CCCCB(O)O)(C(=O)O)[C@H]1C[C@@H](NCCc2ccc(-c3ccccc3)cc2)C1 (stereo partly drawn) [Example 65, (S)-2-amino-2-((1s,3R)-3-(2-(biphenyl-4-yl)ethylamino)cyclobutyl)-6-boronohexanoic acid]",IC50,human arginase I (ARG I),26 to 100 nM
same,IC50,arginase II (ARG II),0.1 to 25 nM
"N[C@](CCCCB(O)O)(CCNC1Cc2ccccc2C1)C(=O)O [Example 66, (R)-2-amino-6-borono-2-(2-(2,3-dihydro-1H-inden-2-ylamino)ethyl)hexanoic acid]",IC50,human arginase I (ARG I),101 to 500 nM
same,IC50,arginase II (ARG II),101 to 500 nM
"CCCN(C)CC[C@](N)(CCCCB(O)O)C(=O)O [Example 69, (R)-2-amino-6-borono-2-(2-(methyl(propyl)amino)ethyl)hexanoic acid]",IC50,human arginase I (ARG I),101 to 500 nM
same,IC50,arginase II (ARG II),101 to 500 nM
"CC(C)NCC[C@](N)(CCCCB(O)O)C(=O)O [Example 70, (R)-2-amino-6-borono-2-(2-(isopropylamino)ethyl)hexanoic acid]",IC50,human arginase I (ARG I),26 to 100 nM
same,IC50,arginase II (ARG II),101 to 500 nM
"CC(C)CNCC[C@](N)(CCCCB(O)O)C(=O)O [Example 71, (R)-2-amino-6-borono-2-(2-(isobutylamino)ethyl)hexanoic acid]",IC50,human arginase I (ARG I),101 to 500 nM
same,IC50,arginase II (ARG II),101 to 500 nM
"N[C@](CCCCB(O)O)(CCN1Cc2ccccc2C1)C(=O)O [Example 72, (R)-2-amino-6-borono-2-(2-(isoindolin-2-yl)ethyl)hexanoic acid]",IC50,human arginase I (ARG I),101 to 500 nM
same,IC50,arginase II (ARG II),501 to 1500 nM
"NC1(c2ccc(Cl)cc2)CC(C(N)(CCCCB(O)O)C(=O)O)C1 (stereo not shown) [Example 73, 2-amino-2-(3-amino-3-(4-chlorophenyl)cyclobutyl)-6-boronohexanoic acid]",IC50,human arginase I (ARG I),501 to 1500 nM
same,IC50,arginase II (ARG II),101 to 500 nM
"NC1(Cc2ccc(Cl)cc2)CC(C(N)(CCCCB(O)O)C(=O)O)C1 (stereo not shown) [Example 74, 2-amino-2-(3-amino-3-(4-chlorobenzyl)cyclobutyl)-6-boronohexanoic acid]",IC50,human arginase I (ARG I),101 to 500 nM
same,IC50,arginase II (ARG II),101 to 500 nM
"CNC(CCCCB(O)O)(C(=O)O)[C@H]1C[C@@H](N)C1 (stereo partly drawn) [Example 75, (S)-2-((1s,3R)-3-aminocyclobutyl)-6-borono-2-(methylamino)hexanoic acid]",IC50,human arginase I (ARG I),101 to 500 nM
same,IC50,arginase II (ARG II),101 to 500 nM
